Source: ChEMBL document CHEMBL1909046, “DrugMatrix in vitro pharmacology data”

Legend:
[1] = molecular target: 5-hydroxytryptamine receptor 6 (Homo sapiens, UniProt P50406); format: cell membranes, HeLa, Membrane; further: in other assays of this panel Not Active means under 50% inhibition at 10 µM
Endothelin-1 receptor = molecular target: T1, Endothelin-1 receptor (Homo sapiens, UniProt P25101); format: cell membranes, Membrane; settings: cho-k1; further: in other assays of this panel Not Active means under 50% inhibition at 10 µM
T1 sequence (P25101 whole entry): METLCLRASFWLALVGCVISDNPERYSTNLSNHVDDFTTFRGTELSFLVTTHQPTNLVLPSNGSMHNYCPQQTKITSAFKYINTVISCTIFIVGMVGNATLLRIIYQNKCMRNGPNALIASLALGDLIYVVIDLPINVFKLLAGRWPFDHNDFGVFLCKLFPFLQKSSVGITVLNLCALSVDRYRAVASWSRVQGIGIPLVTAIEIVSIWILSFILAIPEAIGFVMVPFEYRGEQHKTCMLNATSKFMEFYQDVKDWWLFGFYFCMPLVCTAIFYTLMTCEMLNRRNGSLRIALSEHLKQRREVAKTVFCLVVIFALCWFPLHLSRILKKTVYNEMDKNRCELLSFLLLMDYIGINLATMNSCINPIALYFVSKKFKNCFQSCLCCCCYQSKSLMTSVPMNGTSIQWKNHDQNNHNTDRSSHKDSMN

[2] = DRUGMATRIX: Glutamate, Kainate radioligand binding (ligand: [3H] Kainic acid); format: cell membranes, Rattus norvegicus, Wistar, Brain, Membrane; settings: Not Active = under 50% inhibition at 10 µM
[3] = DRUGMATRIX: Glutamate, NMDA, Phencyclidine radioligand binding (ligand: [3H] TCP); format: cell membranes, Rattus norvegicus, Wistar, Cerebral cortex, Membrane; settings: Not Active = under 50% inhibition at 10 µM
[4] = molecular target: T2, Polyunsaturated fatty acid lipoxygenase ALOX15 (Oryctolagus cuniculus, UniProt P12530); test: biochemical; format: tissue-based, Reticulocytes; settings: reticulocytes;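 further: inhibition of 15-lipoxygenase enzyme activity measured with linoleic acid as the substrate; in other assays of this panel Not Active means under 50% inhibition at 10 µM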
T2 sequence (P12530 whole entry): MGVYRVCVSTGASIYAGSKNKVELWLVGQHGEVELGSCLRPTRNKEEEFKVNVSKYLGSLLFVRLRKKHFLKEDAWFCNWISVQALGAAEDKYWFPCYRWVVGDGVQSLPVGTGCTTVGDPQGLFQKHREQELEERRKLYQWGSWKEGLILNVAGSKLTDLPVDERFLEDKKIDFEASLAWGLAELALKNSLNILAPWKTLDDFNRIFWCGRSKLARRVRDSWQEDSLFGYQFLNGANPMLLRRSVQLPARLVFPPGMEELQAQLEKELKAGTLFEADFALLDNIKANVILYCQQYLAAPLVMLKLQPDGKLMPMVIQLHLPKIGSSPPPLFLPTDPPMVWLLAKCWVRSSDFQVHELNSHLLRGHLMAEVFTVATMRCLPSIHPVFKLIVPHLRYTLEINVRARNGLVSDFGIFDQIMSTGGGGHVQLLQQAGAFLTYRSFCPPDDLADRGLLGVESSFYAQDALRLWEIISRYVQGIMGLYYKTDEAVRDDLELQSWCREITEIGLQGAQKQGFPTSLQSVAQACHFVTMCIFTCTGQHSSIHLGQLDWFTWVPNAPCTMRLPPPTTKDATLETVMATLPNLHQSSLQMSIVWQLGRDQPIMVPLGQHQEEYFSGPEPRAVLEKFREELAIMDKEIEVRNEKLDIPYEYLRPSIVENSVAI

[5] = molecular target: Platelet-activating factor receptor (Homo sapiens, UniProt P25105); format: tissue-based; further: in other assays of this panel Not Active means under 50% inhibition at 10 µM
Sequence of Platelet-activating factor receptor (P25105 whole entry): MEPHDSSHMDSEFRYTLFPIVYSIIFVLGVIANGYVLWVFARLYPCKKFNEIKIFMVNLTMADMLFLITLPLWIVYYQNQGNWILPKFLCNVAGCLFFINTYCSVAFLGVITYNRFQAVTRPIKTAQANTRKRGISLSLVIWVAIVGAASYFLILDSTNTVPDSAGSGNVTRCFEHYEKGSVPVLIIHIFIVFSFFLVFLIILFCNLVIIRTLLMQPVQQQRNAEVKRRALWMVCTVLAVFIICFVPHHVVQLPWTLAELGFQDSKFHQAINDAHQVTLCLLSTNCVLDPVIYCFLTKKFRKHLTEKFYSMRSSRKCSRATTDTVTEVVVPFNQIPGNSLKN

[6] = molecular target: Voltage-gated inwardly rectifying potassium channel KCNH2 (Homo sapiens, UniProt Q12809); settings: hek293; further: in other assays of this panel Not Active means under 50% inhibition at 10 µM
Sequence of Voltage-gated inwardly rectifying potassium channel KCNH2 (Q12809 whole entry): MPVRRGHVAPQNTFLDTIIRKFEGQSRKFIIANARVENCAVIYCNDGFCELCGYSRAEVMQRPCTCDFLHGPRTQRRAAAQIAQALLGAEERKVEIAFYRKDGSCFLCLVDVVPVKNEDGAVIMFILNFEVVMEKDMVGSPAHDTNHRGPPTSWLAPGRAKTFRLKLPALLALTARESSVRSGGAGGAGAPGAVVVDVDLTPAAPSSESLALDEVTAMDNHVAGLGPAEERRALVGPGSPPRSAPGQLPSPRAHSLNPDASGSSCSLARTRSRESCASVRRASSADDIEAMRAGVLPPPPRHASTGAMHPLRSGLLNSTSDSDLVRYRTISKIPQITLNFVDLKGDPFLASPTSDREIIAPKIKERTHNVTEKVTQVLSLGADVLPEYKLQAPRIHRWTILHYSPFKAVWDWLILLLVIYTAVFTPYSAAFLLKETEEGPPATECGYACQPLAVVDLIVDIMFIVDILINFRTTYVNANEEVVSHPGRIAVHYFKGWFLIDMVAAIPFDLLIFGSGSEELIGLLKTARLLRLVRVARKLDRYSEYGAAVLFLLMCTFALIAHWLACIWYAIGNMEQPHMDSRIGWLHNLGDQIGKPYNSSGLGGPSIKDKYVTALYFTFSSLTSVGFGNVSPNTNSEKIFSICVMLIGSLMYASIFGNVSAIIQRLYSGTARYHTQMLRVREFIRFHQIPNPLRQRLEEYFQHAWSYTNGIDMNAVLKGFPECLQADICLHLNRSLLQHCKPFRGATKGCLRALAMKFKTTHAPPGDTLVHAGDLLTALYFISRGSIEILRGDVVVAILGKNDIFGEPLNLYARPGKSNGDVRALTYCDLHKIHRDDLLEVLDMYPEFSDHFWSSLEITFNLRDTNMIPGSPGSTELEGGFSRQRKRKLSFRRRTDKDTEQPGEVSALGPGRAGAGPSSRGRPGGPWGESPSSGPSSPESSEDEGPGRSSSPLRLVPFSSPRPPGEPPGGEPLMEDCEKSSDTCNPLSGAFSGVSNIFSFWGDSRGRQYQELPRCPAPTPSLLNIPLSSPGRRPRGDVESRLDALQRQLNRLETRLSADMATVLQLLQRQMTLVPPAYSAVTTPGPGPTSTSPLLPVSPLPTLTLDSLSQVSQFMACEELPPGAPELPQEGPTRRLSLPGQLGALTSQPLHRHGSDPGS

Sequence of 5-hydroxytryptamine receptor 6 (P50406 whole entry): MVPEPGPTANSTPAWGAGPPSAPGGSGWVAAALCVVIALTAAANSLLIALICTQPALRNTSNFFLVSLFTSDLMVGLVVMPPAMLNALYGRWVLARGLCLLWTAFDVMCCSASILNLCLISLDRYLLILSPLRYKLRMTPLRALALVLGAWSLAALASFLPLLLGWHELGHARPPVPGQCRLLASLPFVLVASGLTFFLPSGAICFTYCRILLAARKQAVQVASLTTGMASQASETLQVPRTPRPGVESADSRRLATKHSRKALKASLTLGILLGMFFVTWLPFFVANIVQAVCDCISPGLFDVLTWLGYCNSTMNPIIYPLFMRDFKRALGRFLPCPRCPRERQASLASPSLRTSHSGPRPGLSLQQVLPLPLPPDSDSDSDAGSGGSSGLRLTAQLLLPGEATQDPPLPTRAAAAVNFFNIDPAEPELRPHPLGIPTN

Compound | IC50 ([1]; hela) | IC50 (Endothelin-1 receptor) | IC50 [2] | Ki [2] | IC50 [3] | Ki [3] | IC50 [4] | IC50 [5] | IC50 [6] | Ki [6] | IC50 ([1]; read-out: IC50) [nM] | Ki ([1]; read-out: Ki) [nM]
O=C(c1ccccc1C(F)(F)F)N1CCC(Cc2ccccc2)CC1 | Not Active | Not Active | Not Active | Not Active | Not Active | Not Active | Not Active | Not Active | Not Active | Not Active |  | 
O=C/C=C/c1ccccc1 | Not Active | Not Active | Not Active | Not Active | Not Active | Not Active | Not Active | Not Active | Not Active | Not Active |  | 
Nc1ccc2c3c(cccc13)C(=O)NC2=O | Not Active | Not Active | Not Active | Not Active | Not Active | Not Active | Not Active | Not Active | Not Active | Not Active |  | 
COc1ccc(C(=O)N2CCCC2=O)cc1 | Not Active | Not Active | Not Active | Not Active | Not Active | Not Active | Not Active | Not Active | Not Active | Not Active |  | 
O=c1cnn([C@@H]2O[C@H](CO)[C@@H](O)[C@H]2O)c(=O)[nH]1 [6-AZAURIDINE] | Not Active | Not Active | Not Active | Not Active | Not Active | Not Active | Not Active | Not Active | Not Active | Not Active |  | 
CC[C@H](C)[C@H]1O[C@]2(C=C[C@@H]1C)C[C@@H]1C[C@@H](C/C=C(\C)[C@@H](O[C@H]3C[C@H](OC)[C@@H](O[C@H]4C[C@H](OC)[C@@H](O)[C@H](C)O4)[C@H](C)O3)[C@@H](C)/C=C/C=C3\CO[C@@H]4[C@H](O)C(C)=C[C@@H](C(=O)O1)[C@]34O)O2.CO[C@H]1C[C@H](O[C@H]2[C@H](C)O[C@@H](O[C@@H]3/C(C)=C/C[C@@H]4C[C@@H](C[C@]5(C=C[C@H](C)[C@@H](C(C)C)O5)O4)OC(=O)[C@@H]4C=C(C)[C@@H](O)[C@H]5OC/C(=C\C=C\[C@@H]3C)[C@]54O)C[C@@H]2OC)O[C@@H](C)[C@@H]1O [ABAMECTIN] | Not Active | Not Active | Not Active | Not Active | Not Active | Not Active | Not Active | Not Active | Not Active | Not Active |  | 
NCCCC(O)(P(=O)(O)O)P(=O)(O)O [ALENDRONIC ACID] | Not Active | Not Active | Not Active | Not Active | Not Active | Not Active | Not Active | Not Active |  |  |  | 
Cc1nnc2n1-c1ccc(Cl)cc1C(c1ccccc1)=NC2 [ALPRAZOLAM] | Not Active | Not Active | Not Active | Not Active | Not Active | Not Active | Not Active | Not Active | Not Active | Not Active |  | 
Cn1c(=O)c2[nH]cnc2n(C)c1=O.Cn1c(=O)c2[nH]cnc2n(C)c1=O.NCCN [AMINOPHYLLINE] | Not Active | Not Active | Not Active | Not Active | Not Active | Not Active | Not Active | Not Active | Not Active | Not Active |  | 
CCC1(CCC(C)C)C(=O)NC(=O)NC1=O [AMOBARBITAL] | Not Active | Not Active | Not Active | Not Active | Not Active | Not Active | Not Active | Not Active | Not Active | Not Active |  | 
CC1(C)S[C@@H]2[C@H](NC(=O)[C@H](N)c3ccccc3)C(=O)N2[C@H]1C(=O)O [AMPICILLIN] | Not Active | Not Active | Not Active | Not Active | Not Active | Not Active | Not Active | Not Active |  |  |  | 
COc1ccc(C2C(=O)c3ccccc3C2=O)cc1 [ANISINDIONE] | Not Active | Not Active | Not Active | Not Active | Not Active | Not Active | Not Active | Not Active | Not Active | Not Active |  | 
O=C1O[C@H]([C@@H](O)CO)C(O)=C1O [ASCORBIC ACID] | Not Active | Not Active | Not Active | Not Active | Not Active | Not Active | Not Active | Not Active | Not Active | Not Active |  | 
CN1[C@@H]2CC[C@H]1C[C@@H](OC(=O)C(CO)c1ccccc1)C2 (stereo not given in full) [ATROPINE] | Not Active | Not Active | Not Active | Not Active | Not Active | Not Active | Not Active | Not Active |  |  |  | 
CC(C(=O)O)c1ccc2oc(-c3ccc(Cl)cc3)nc2c1 (stereo not given) [BENOXAPROFEN] | Not Active | Not Active | Not Active | Not Active | Not Active | Not Active | Not Active | Not Active | Not Active | Not Active |  | 
COc1ccc2cc3[n+](cc2c1OC)CCc1cc2c(cc1-3)OCO2.[Cl-] [BERBERINE CHLORIDE] | Not Active | Not Active | Not Active | Not Active | Not Active | Not Active | Not Active | Not Active | Not Active | Not Active |  | 
O=C(O)CCNC(=O)c1ccccc1 [BETAMIPRON] | Not Active | Not Active | Not Active | Not Active | Not Active | Not Active | Not Active | Not Active | Not Active | Not Active |  | 
CC(=O)Oc1ccc(C(c2ccc(OC(C)=O)cc2)c2ccccn2)cc1 [BISACODYL] | Not Active | Not Active | Not Active | Not Active | Not Active | Not Active | Not Active | Not Active | Not Active | Not Active |  | 
Cc1cc2c(OCC(CNC(C)(C)C)OC(=O)c3ccccc3)cccc2[nH]1 (stereo not given) [BOPINDOLOL] | Not Active | Not Active | Not Active | Not Active | Not Active | Not Active | Not Active | Not Active | Not Active | Not Active |  | 
COc1cc(N)c(Cl)cc1C(=O)NC1CCN(CCCOc2ccc(F)cc2)CC1OC (stereo not given) [CISAPRIDE] | Not Active | Not Active | Not Active | Not Active | Not Active | Not Active | Not Active | Not Active |  |  |  | 
CC[C@H]1CN2CCc3cc(OC)c(OC)cc3[C@@H]2C[C@@H]1C[C@H]1NCCc2cc(OC)c(OC)cc21 [EMETINE] | Not Active | Not Active | Not Active | Not Active | Not Active | Not Active | Not Active | Not Active |  |  |  | 
CCN(CC)CCOCCC1=CCC2CC1C2(C)C (stereo not given) [MYRTECAINE] | Not Active | Not Active | Not Active | Not Active | Not Active | Not Active | Not Active | Not Active |  |  |  | 
COc1cc2nc(N3CCN(C(=O)c4ccco4)CC3)nc(N)c2cc1OC [PRAZOSIN] | Not Active | Not Active | Not Active | Not Active | Not Active | Not Active | Not Active | Not Active |  |  |  | 
CCCNCC(O)COc1ccccc1C(=O)CCc1ccccc1 (stereo not given) [PROPAFENONE] |  | Not Active | Not Active | Not Active | Not Active | Not Active | Not Active | Not Active |  |  | 1860 | 865
